Source: patent US20040152903A1, “6-chloro-3-pyridylmethylpropylamine derivatives, preparation process thereof and bactericides” (priority 2004, published 2004)

Experiments:
Assay in all cases: Antifungal activity test (PDA plate, hypha extension inhibition)
Format in all cases: cell-based
[1] = test system: Pseudocercosporella herpotrichoides; settings: 25 ppm in PDA culture medium
Method: (§1) (Antifungal Activity Test against Various Pathogenic Fungi) For each of the compounds I-1 to 27 of the present invention and the comparative compounds (a) to (d), (m-1) and (m-3), 20 mg was weighed and dissolved in 2 ml of dimethylsulfoxide, and a double dilution row in 10 steps was prepared by further using dimethylsulfoxide. A 0.6 ml portion of these solutions was each added to 60 ml of a PDA culture medium (potato-dextrose-agar culture medium) at about 60° C., they were well mixed in a 100 ml Erlenmeyer flask, the solution was poured into a schale and was solidified, the plate culture media containing the compounds according to the present invention with final concentrations of 100, 50.0, 25.0, 12.5, 6.3, 3.2, 1.6, 0.8, 0.4 and 0.2 mg/l were prepared. On the other hand, the specimen bacteria cultured on the plate culture media beforehand was punched by a 4 mm diameter cork borer, and was inoculated on the plate culture media containing the aforementioned chemicals. After the inoculation, the bacteria were cultured at the optimum growth temperature of each bacterium for 1 to 7 days (for this optimum growth temperature, LIST OF CULTURES 1996 Microorganisms 10th edition published by Fermentation Research Institute (Foundation) can be referred to.), and the growth of the bacteria was measured by the diameter of a colony. […]

[2] = test system: Microdochium nivale; settings: 3.2 ppm in PDA culture medium
Method: as §1

[3] = test system: Septoria tritici; settings: 100 ppm in PDA culture medium
Method: (Antifungal Activity Test against Various Pathogenic Fungi) For each of the compounds I-1 to 27 of the present invention and the comparative compounds (a) to (d), (m-1) and (m-3), 20 mg was weighed and dissolved in 2 ml of dimethylsulfoxide, and a double dilution row in 10 steps was prepared by further using dimethylsulfoxide. A 0.6 ml portion of these solutions was each added to 60 ml of a PDA culture medium (potato-dextrose-agar culture medium) at about 60° C., they were well mixed in a 100 ml Erlenmeyer flask, the solution was poured into a schale and was solidified, the plate culture media containing the compounds according to the present invention with final concentrations of 100, 50.0, 25.0, 12.5, 6.3, 3.2, 1.6, 0.8, 0.4 and 0.2 mg/l were prepared. On the other hand, the specimen bacteria cultured on the plate culture media beforehand was punched by a 4 mm diameter cork borer, and was inoculated on the plate culture media containing the aforementioned chemicals. After the inoculation, the bacteria were cultured at the optimum growth temperature of each bacterium for 1 to 7 days (for this optimum growth temperature, LIST OF CULTURES 1996 Microorganisms 10th edition published by Fermentation Research Institute (Foundation) can be referred to.), and the growth of the bacteria was measured by the diameter of a colony. […] R=100(dc−dt)/dc (Equation 3) [wherein each symbol is shown as follows: R=Hypha extension inhibition rate (%), dc=Diameter of colony on no-treated plate, dt=Diameter of colony on chemical-treated plate.] The results obtained above was evaluated in 5 steps in accordance with the following examination scale. <Growth Inhibition> 5: Hypha extension inhibition rate of 90% or more 4: Hypha extension inhibition rate of from 70% to less than 90% 3: […] 2: […] In addition, the abbreviations in Table 10 are as follows: S.t: Septoria tritici

SMILES	Growth Inhibition P.h (25) [1]	Growth Inhibition M.n (3.2) [2]	Growth Inhibition S.t (100) [3]
CC(Cc1ccc2c(c1)OC(F)(F)O2)CN(C)Cc1ccc(Cl)nc1 (stereo not drawn) [Compound I-24]	5 (Hypha extension inhibition rate of 90% or more)	4 (Hypha extension inhibition rate of from 70% to less than 90%)	4 (Hypha extension inhibition rate of from 70% to less than 90%)
CC(Cc1ccc(C(F)(F)F)c(F)c1F)CN(C)Cc1ccc(Cl)nc1 (stereo not drawn) [Compound I-10]	5 (Hypha extension inhibition rate of 90% or more)	4 (Hypha extension inhibition rate of from 70% to less than 90%)	4 (Hypha extension inhibition rate of from 70% to less than 90%)
